Measured values reported in patent US9957214B2, “Multifunctional radical quenchers” (ARIZONA BOARD OF REGENTS ON BEHALF OF ARIZONA STATE …, priority 2012, dated 2018).

Assays:
FRDA lymphocytes = assay: Suppression of ROS production (DCFH-DA flow cytometry) in DEM-treated FRDA lymphocytes; type: cell-based; conditions: FRDA lymphocytes or leukemic CEM cells depleted of glutathione with DEM; compared with natural product 8
Procedure: FIG. 2. Representative flow cytometric analysis of ROS production in FRDA lymphocytes. Following pretreatment with the indicated compounds (5 and 10 μM) for 16 h, the cells were treated with 5 mM diethyl maleate (DEM) for 80 min to deplete glutathione. The cells were washed in phosphate-buffered saline and suspended in phosphate-buffered saline containing 20 mM glucose. Cells were loaded with 10 μM dichlorodihydrofluorescein diacetate (DCFH-DA) for 20 min, and the green fluorescence (DCF) was measured by flow cytometry (C6 Accuri, BD Biosciences, San Jose, Calif.), using a 488 nm excitation laser and the FL1-H channel 530±15 nm emission filter. […] A total of 10,000 events was recorded for each sample and analyzed (C6 Accuri software, BD Biosciences). […] Data are expressed as the mean±SEM (n=3).
Intracellular ROS production was measured in FRDA lymphocyte cells (GM15850, Coriell Cell Repositories, Camden, N.J.) using the oxidant sensitive fluorescent probe 2,7-dichlorodihydrofluorescein diacetate (DCFH-DA) (Molecular Probes) as described previously (Khdour et al. (2011) Pharm. Res. 28, 2896-2909). […] The samples were analyzed immediately by flow cytometry (C6 Accuri, BD Biosciences, San Jose, Calif.), using a 488 nm excitation laser and the FL1-H channel 530±15 nm emission filter. The generation of ROS, mainly peroxides, was detected as a result of the oxidation of DCFH. […]

[1] = Lipid peroxidation induced by AAPH peroxyl radicals in phospholipid liposomes (C11-BODIPY581/591 fluorescence); conditions: 10 mM AAPH, phosphate buffer, 40° C.; compared with tocopherol
Procedure: FIG. 4. Effect of nitrogen-containing 3-alkyl-1,4-benzoquinone derivatives on lipid peroxidation induced by peroxyl radicals generated from thermal decomposition of AAPH in phospholipid liposomes in phosphate buffer at 40° C. […] Relative fluorescence units are normalized to 100% intensity.
Several methods for assaying lipid peroxidation in vitro have been developed (Kuypers et al. (1987) Biochim Biophys Acta. 25, 266-274; Pap et al. (1999) FEBS Lett. 453, 278-282; Drummen et al. (2002) Free RadicBiol Med. 33, 473-490). Almost all of these methods are based on inhibition of free radical-induced oxidation reactions. A widely used fluorescence assay for lipid peroxidation uses lipid soluble cis-parinaric acid as a probe. cis-parinaric acid loses its fluorescence (λexc/em: 320/432 nm) upon interaction with peroxyl radicals and retains its fluorescence in the presence of radical quenchers. cis-parinaric acid is, however, air sensitive, photolabile and absorbs light in the UV region of the spectrum (at ˜320 nm). […] C11-BODIPY^581/591 (Molecular Probes, Eugene, Oreg., USA) stock solution concentrations were determined by measuring the absorption of C11-BODIPY^581/591 at 582 nm using a molar extinction coefficient of 140,000 mol^−1 cm^−1 (R. P. Haugland, (1999) Handbook of Fluorescent Probes and Research Chemicals, Molecular Probes, Inc., Eugene, Oreg.). […]

Compound | Suppression of ROS (in words) (FRDA lymphocytes) | Protection against lipid peroxidation in liposomes (in words) [1]
CCCCCCCCCCCCCC1=C(OC)C(=O)C=C(NCCCC(=O)OC(C)(C)C)C1=O [Compound 7, tert-butyl 4-(4-methoxy-3,6-dioxo-5-tridecylcyclohexa-1,4-dienylamino)butanoate] | very effective in suppressing ROS | –
CCCCCCCCCCCCCC1=C(OC)C(=O)C=C(NCCCC(=O)OCCCCCC)C1=O [Compound 18, Hexyl 4-(4-methoxy-3,6-dioxo-5-tridecylcyclohexa-1,4-dienylamino)butanoate] | – | significant protection against lipid peroxidation
COC1=C2CCCCCCCCCCCCCCCNC(=CC1=O)C2=O [Compound 40] | very effective in suppressing ROS | –
